Experimental data published in patent US9944749B2, “Polycarbonates” (Valspar Sourcing, Inc., priority 2012, dated 2018).
Like-named read-outs stand apart in the source and are kept apart here.

Legend:
human estrogen receptor = target: T1, human estrogen receptor (Homo sapiens, UniProt P03372); assay: suitable in vitro assay whose results are directly correlated to the MCF-7 cell proliferation assay; format: cell-based; settings: in vitro assay correlated to MCF-7 assay through common reference compounds
T1 sequence (P03372 1-595): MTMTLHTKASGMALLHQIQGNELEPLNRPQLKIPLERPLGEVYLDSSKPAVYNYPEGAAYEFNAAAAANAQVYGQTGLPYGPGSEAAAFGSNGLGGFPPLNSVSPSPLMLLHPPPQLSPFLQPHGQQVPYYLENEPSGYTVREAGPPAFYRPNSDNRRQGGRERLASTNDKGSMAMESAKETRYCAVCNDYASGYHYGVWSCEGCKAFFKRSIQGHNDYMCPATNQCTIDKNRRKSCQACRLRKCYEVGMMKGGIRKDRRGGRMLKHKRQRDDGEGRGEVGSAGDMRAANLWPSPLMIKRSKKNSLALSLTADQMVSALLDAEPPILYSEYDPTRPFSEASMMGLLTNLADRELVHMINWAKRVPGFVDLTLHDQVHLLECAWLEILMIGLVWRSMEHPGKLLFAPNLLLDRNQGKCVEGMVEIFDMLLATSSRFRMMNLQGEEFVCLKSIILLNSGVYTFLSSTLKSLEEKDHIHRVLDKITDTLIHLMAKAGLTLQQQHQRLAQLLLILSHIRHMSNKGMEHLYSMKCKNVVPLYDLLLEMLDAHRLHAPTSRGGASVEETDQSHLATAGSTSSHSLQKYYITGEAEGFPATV

MCF-7, clone WS8, cells = assay: MCF-7 cell proliferation assay of estrogenic activity; format: cell-based, human

SMILES: Cc1cc(Cc2cc(C)cc(C(C)(C)C)c2O)c(O)c(C(C)(C)C)c1 [Structure 9]
- estrogenic activity (human estrogen receptor): do not exhibit appreciable estrogenic activity

SMILES: CC(C)(C)c1cc(O)c(C(C)(C)C)cc1O [Structure 12, 2,5-di-t-butylhydroquinone]
- estrogenic activity (human estrogen receptor): do not exhibit appreciable estrogenic activity

SMILES: Oc1ccc(Cc2ccc(O)cc2)cc1 [Bisphenol F]
- Log RPE (MCF-7, clone WS8, cells): −2

SMILES: CC(C)(C)c1cc(Cc2cc(C(C)(C)C)c(O)c(C(C)(C)C)c2)cc(C(C)(C)C)c1O [Structure 8, 4,4′-methylenebis(2,6-di-t-butylphenol)]
- estrogenic activity (human estrogen receptor): do not exhibit appreciable estrogenic activity

SMILES: CCCC(c1cc(C(C)(C)C)c(O)cc1C)c1cc(C(C)(C)C)c(O)cc1C [Structure 7, 4,4′-butylidenebis(2-t-butyl-5-methylphenol)]
- estrogenic activity (human estrogen receptor): do not exhibit appreciable estrogenic activity

SMILES: C[C@]12CC[C@@H]3c4ccc(O)cc4CC[C@H]3[C@@H]1CC[C@@H]2O [17β-estradiol]
- Log RPE (MCF-7, clone WS8, cells; logarithmic (base 10) Relative Proliferative Effect relative to 17-beta estradiol, cell proliferation measured as total DNA, values 'expected or measured'): 2.00

SMILES: Cc1cc(Cc2cc(C)c(O)c(C)c2)cc(C)c1O [Structure 6, 4,4′-methylenebis(2,6-dimethylphenol)]
- estrogenic activity (human estrogen receptor): do not exhibit appreciable estrogenic activity
